Laboratory results: ChEMBL document CHEMBL3414432, “Discovery of N-benzoxazol-5-yl-pyrazole-4-carboxamides as nanomolar SQR inhibitors” (Eur J Med Chem, 2015)

What was measured:
[1] = Inhibition of porcine heart SQR in SCR complex assessed as reduction in ubiquinol-cytochrome c reductase (complex 3) activity by measuring cytochrome c level using succinate and DCIP substrate by spectrophotometry; parameters: species or system Sus scrofa
[2] = Inhibition of porcine heart SCR using succinate and cytochrome c substrate at 23 degC by spectrophotometry; parameters: species or system Sus scrofa
[3] = Non-competitive inhibition of porcine heart SCR with respect to cytochrome c substrate at 23 degC by double-reciprocal plot; parameters: species or system Sus scrofa
[4] = target: T1, Succinate-ubiquinone oxidoreductase (Sus scrofa, UniProt A5GZW8+D0VWV4); experiment: Inhibition of porcine heart SQR in SCR complex assessed as reduction in ubiquinol-cytochrome c reductase (complex 3) activity by measuring cytochrome c level using succinate and DCIP substrate at 23 degC by spectrophotometry; format: protein-complex assay
T1 sequence (A5GZW8 whole entry): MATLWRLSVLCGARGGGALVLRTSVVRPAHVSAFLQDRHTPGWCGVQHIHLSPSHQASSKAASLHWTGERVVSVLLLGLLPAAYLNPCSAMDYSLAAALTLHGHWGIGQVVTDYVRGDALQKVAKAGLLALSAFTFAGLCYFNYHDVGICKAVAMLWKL
T1 sequence (D0VWV4 whole entry): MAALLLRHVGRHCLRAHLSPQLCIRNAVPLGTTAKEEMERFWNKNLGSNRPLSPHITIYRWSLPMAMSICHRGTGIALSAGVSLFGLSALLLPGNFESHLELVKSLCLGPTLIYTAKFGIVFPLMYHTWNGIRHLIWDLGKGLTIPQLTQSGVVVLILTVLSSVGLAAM

[5] = target: T1, Succinate-ubiquinone oxidoreductase; experiment: Non-competitive inhibition of porcine heart SQR in SCR complex with respect to DCIP substrate at 23 degC by double-reciprocal plot; format: protein-complex assay
Sus scrofa [6] = organism: Sus scrofa; experiment: Inhibition of porcine heart electron transport protein complex 3 in SCR complex at 10 uM using DBH2 and cytochrome c substrate by spectrophotometry
Sus scrofa [7] = organism: Sus scrofa; experiment: Potency index, ratio of Ki for penthiopyrad to Ki for compound against porcine heart SCR
[8] = target: Succinate-ubiquinone oxidoreductase (Sus scrofa) (UniProt A5GZW8+D0VWV4); experiment: Potency index, ratio of Ki for penthiopyrad to Ki for compound against porcine heart SQR in SCR complex; format: protein-complex assay
[9] = Inhibition of bovine heart SQR; parameters: species or system Bos taurus
[10] = Inhibition of rat liver SQR

Compound | IC50 [1] | also measured
Cn1cc(C(=O)Nc2ccc3oc(SCc4ccc(Cl)cc4)nc3c2)c(C(F)(F)F)n1 | 111 nM | –
Cn1cc(C(=O)Nc2ccc3oc(SCc4ccc(OC(F)(F)F)cc4)nc3c2)c(C(F)F)n1 | 38 nM | IC50 [2]: 38 nM; Ki [3]: 43 nM; IC50 [4]: 11 nM; Ki [5]: 11 nM; inhibition (Sus scrofa [6]): 13%; Ratio Ki (Sus scrofa [7]): 30; Ratio Ki [8]: 30
Cn1cc(C(=O)Nc2ccc3oc(SCc4cccc(Cl)c4)nc3c2)c(C(F)F)n1 | 82 nM | –
Cn1cc(C(=O)Nc2ccc3oc(SCc4ccc(F)cc4)nc3c2)c(C(F)F)n1 | 101 nM | –
Cn1cc(C(=O)Nc2ccc3oc(SCc4ccc(C#N)cc4)nc3c2)c(C(F)(F)F)n1 | 562 nM | –
Cn1cc(C(=O)Nc2ccc3oc(SCc4ccc(C(F)(F)F)cc4)nc3c2)c(C(F)(F)F)n1 | 83 nM | –
Cn1cc(C(=O)Nc2ccc3oc(SCc4ccc(C(F)(F)F)cc4)nc3c2)c(C(F)F)n1 | 39 nM | –
Cc1ccc(CSc2nc3cc(NC(=O)c4cn(C)nc4C(F)(F)F)ccc3o2)cc1 | 269 nM | –
Cn1cc(C(=O)Nc2ccc3oc(SCc4cccc(Br)c4)nc3c2)c(C(F)(F)F)n1 | 119 nM | –
COc1[nH]c(=O)c(C(=O)[C@@H](C)C[C@H](C)[C@@H](Cl)CCl)c(O)c1OC [ATPENIN A5] | – | IC50 [9]: 3.6 nM; IC50 [10]: 3.7 nM
Cn1cc(C(=O)Nc2ccc3oc(SCc4cccc(F)c4)nc3c2)c(C(F)(F)F)n1 | 418 nM | –
Cn1cc(C(=O)Nc2ccc3oc(SCc4ccc(OC(F)(F)F)cc4)nc3c2)c(C(F)(F)F)n1 | 88 nM | –
Cc1ccc(CSc2nc3cc(NC(=O)c4cn(C)nc4C(F)F)ccc3o2)cc1 | 216 nM | –
Cn1cc(C(=O)Nc2ccc3oc(SCc4cccc(Cl)c4)nc3c2)c(C(F)(F)F)n1 | 149 nM | –
COc1ccc(CSc2nc3cc(NC(=O)c4cn(C)nc4C(F)(F)F)ccc3o2)cc1 | 284 nM | –
CC(C)CC(C)c1sccc1NC(=O)c1cn(C)nc1C(F)(F)F (configuration not stated) [PENTHIOPYRAD] | 1320 nM | IC50 [2]: 1320 nM; Ki [3]: 1390 nM; IC50 [4]: 527 nM; Ki [5]: 327 nM; inhibition (Sus scrofa [6]): < 10%
Cn1cc(C(=O)Nc2ccc3oc(SCc4ccc(F)cc4)nc3c2)c(C(F)(F)F)n1 | 210 nM | –
Cn1cc(C(=O)Nc2ccc3oc(SCc4cccc(F)c4)nc3c2)c(C(F)F)n1 | 244 nM | –
Cn1cc(C(=O)Nc2ccc3oc(SCc4cccc(Br)c4)nc3c2)c(C(F)F)n1 | 62 nM | –
COc1ccc(CSc2nc3cc(NC(=O)c4cn(C)nc4C(F)F)ccc3o2)cc1 | 208 nM | –
Cn1cc(C(=O)Nc2ccc3oc(SCc4ccc(C#N)cc4)nc3c2)c(C(F)F)n1 | 397 nM | –
Cn1cc(C(=O)Nc2ccc3oc(SCc4ccc(F)c(F)c4)nc3c2)c(C(F)(F)F)n1 | 130 nM | –
Cn1cc(C(=O)Nc2ccc3oc(SCc4ccc(F)c(F)c4)nc3c2)c(C(F)F)n1 | 100 nM | –
Cn1cc(C(=O)Nc2ccc3oc(SCc4ccc(Cl)cc4)nc3c2)c(C(F)F)n1 | 57 nM | –
